For 42 compounds, EC50 results are on record in patent US11091501B2, “Heterocyclic compounds as RSV inhibitors” (Enanta Pharmaceuticals, Inc., priority 2017, dated 2021).

The subject of the experiment is Human RSV-A (“Long” strain). Briefly: RSV in vitro cytoprotection assay (CPE, ATPlite) in HEp-2 cells. The class given is cell-based. As to conditions: human respiratory syncytial virus, 96 h; HEp-2 cells, 4-day incubation, ATPlite readout; read-out: Human RSV-A (“Long” strain) EC50. From the text: RSV is a single stranded negative sense RNA virus that causes respiratory tract infections which can be dangerous to infants, the elderly, and immunosuppressed individuals. Currently there is no vaccine, and therapeutic options are both costly and of limited effectiveness. These approved treatments are Ribavirin, and Palivizumab/Synagis (a monoclonal antibody). RSV has two genotypes, A and B, which differ primarily in the structure of the virus' surface “G” attachment protein. Our current primary screen focuses on RSV-A and uses an in vitro cytoprotection assay where compounds are added in 2-fold dilutions to cells which are then subjected to fully replicative viral particles. Cell viability is measured several days later along with separate measurements of compound cytotoxicity. This report focuses on the results of our most recent screening of compounds.
HEp-2 cells, (originally derived from tumors grown in irradiated-cortisonised weanling rats that had been injected with epidermoid carcinoma tissue from a person's larynx, but later found to be indistinguishable from HeLa cells by PCR DNA analysis), were used for the culturing of genotype A, “Long” strain RSV. Flasks were inoculated with RSV and viral stocks were collected once cytopathic effect (CPE) was greater than 90%. Viral stocks in 25% sucrose media were snap frozen using liquid nitrogen to increase viral stability. Viral stock titers were quantified by tissue culture infectious dose 50% (TCID50) using 8,000 cells per well and 3-fold viral dilutions across a 96-well plate, cultured for 4 days.
Following extensive parameter testing, the final assay is run as follows: HEp-2 cells are seeded into the inner 60 wells of a 96-well plate at 8,000 cells per well in a volume of 50 μL using Growth Media (DMEM without phenol red, 1% L-Glut, 1% Penn/Strep, 1% nonessential amino acids, 10% FBS). 2-Fold serial dilutions of control and test compounds are added to the wells in duplicate in a total volume of 25 μL. Viral stock is then added to the wells in a volume of […] the total volume of each well to 100 μL. Each 96-well plate has a control column of 6 wells with cells and virus but no compound (negative control, max CPE), a column with cells but no compound or virus (positive control, minimum CPE), and a column with no cells or virus or compound (background plate/reagent control). The control wells with cells but no virus are given an additional 25 uL of growth media containing an equal quantity of sucrose as those wells receiving the viral stock in order to keep consistent in media and volume conditions. The outer wells of the plate are filled with 125 μL of growth media to act as a thermal and evaporative moat around the test wells. Following a 4-day incubation period, the plates are read using ATPlite (50 uL added per well), which quantifies the amount of ATP (a measure of cell health) present in each well. Assay plates are read using the Envision luminometer. In parallel, cytotoxicity is examined on an additional 96-well plate treated in an identical manner, but substituting the 25 μL of viral stock for 25 μL of growth media. […] EC50 ranges are as follows: A<0.01 μM; B 0.01-0.05 μM; C>0.05 μM.
In general, EC50 refers to the concentration that produces a half-maximal response. As for `Cc1ccc(C(=O)Nc2ccc(C(=O)N3CCc4c(sc(C(=O)Nc5ncccc5F)c4F)-c4ccccc43)cc2)c(N2CC3(CCOCC3)C2)n1` [Example 218], the EC50 is less than 0.01 µM. `O=C(Nc1ccc(C(=O)N2CCc3c(sc(C(=O)Nc4c(F)cc(F)cc4F)c3F)-c3ccccc32)cc1)c1cccnc1N1CC2(CCOCC2)C1` [Example 89]: the EC50 was less than 0.01 µM. The same measure for `Cc1cnc(N2CC3(CCOCC3)C2)c(C(=O)Nc2ccc(C(=O)N3CCc4cc(C(=O)Nc5ncccc5Cl)sc4-c4ccc(F)cc43)cc2)c1` [Example 120]: less than 0.01 µM.

Take `Cc1cnc(N2CC3(CCOCC3)C2)c(C(=O)Nc2ccc(C(=O)N3CCc4cc(-c5ncccc5F)sc4-c4ccc(F)cc43)cc2)c1` [Example 165]: the EC50 was less than 0.01 µM. Turning to `Cc1cnc(N2CC3(CCOCC3)C2)c(C(=O)Nc2ccc(C(=O)N3CCc4c(sc(C(=O)Nc5cccc(C(F)(F)F)n5)c4F)-c4ccccc43)cc2)c1` [Example 232], the 50% effective concentration (EC50) is more than 0.05 µM. Then `Cc1ccc(C(=O)Nc2ccc(C(=O)N3CCc4cc(C(=O)Nc5c(C)cccc5F)oc4-c4ccccc43)cc2)c(N2CC3(CCOCC3)C2)n1` [Example 256], with less than 0.01 µM; and `Cc1cnc(N2CC3(CCOCC3)C2)c(C(=O)Nc2ccc(C(=O)N3CCc4cc(-c5c[nH]nc5C5CC5)sc4-c4ccc(F)cc43)cc2)c1` [Example 170], with less than 0.01 µM; and `Cc1cnc(N2CC3(CCOCC3)C2)c(C(=O)Nc2ccc(C(=O)N3CCc4cc(-c5nnc(C)o5)sc4-c4cc(F)c(F)cc43)cc2)c1` [Example 193], with less than 0.01 µM. The same measure for `Cc1ccc(C(=O)Nc2ccc(C(=O)N3CCc4cc(C(=O)Nc5c(F)cc(F)cc5F)oc4-c4ccccc43)cc2)c(N2CC3(CCOCC3)C2)n1` [Example 257]: less than 0.01 µM; for `Cc1ccc(C(=O)Nc2ccc(C(=O)N3CCc4c(sc(NC(=O)c5c(F)cccc5F)c4F)-c4ccccc43)cc2)c(N2CC3(CCOCC3)C2)n1` [Example 303]: 0.01 to 0.05 µM. The same measure for `O=C(Nc1c(F)cccc1F)c1cc2c(s1)-c1cc(C(F)(F)F)ccc1N(C(=O)c1ccc(NC(=O)c3cccnc3N3CC4(CCOCC4)C3)cc1)CC2` [Example 87]: 0.01 to 0.05 µM. Consider `CCS(=O)(=O)CCN(C)c1ncccc1C(=O)Nc1ccc(C(=O)N2CCc3cc(C(=O)Nc4c(F)cccc4F)sc3-c3ccc(F)cc32)cc1` [Example 57], for which the EC50 was more than 0.05 µM. The same measure for `O=C(Nc1c(F)cccc1Cl)c1cc2c(o1)-c1ccc(F)cc1N(C(=O)c1ccc(NC(=O)c3cc4c(nc3N3CC5(CCOCC5)C3)CCCC4)cc1)CC2` [Example 238]: 0.01 to 0.05 µM; for `O=C(Nc1ccc(C(=O)N2CCc3c(sc(-c4nc5ccccc5[nH]4)c3F)-c3ccccc32)cc1)c1cccnc1N1CC2(CCOCC2)C1` [Example 92]: less than 0.01 µM; for `Cc1cnc(N2CC3(CCOCC3)C2)c(C(=O)Nc2ccc(C(=O)N3CCc4c(sc(-c5nc6cccc(Cl)c6[nH]5)c4F)-c4ccccc43)cc2)c1` [Example 202]: 0.01 to 0.05 µM. The same measure for `Cc1cnc(N2CC3(CCOCC3)C2)c(C(=O)Nc2ccc(C(=O)N3CCc4cc(C(=O)Nc5c(Cl)cccc5Cl)oc4-c4ccc(F)cc43)cc2)c1` [Example 236]: less than 0.01 µM; for `O=C(Nc1c(F)cccc1Cl)c1cc2c(s1)-c1ccc(F)cc1N(C(=O)c1ccc(NC(=O)c3cc(C(F)F)cnc3N3CC4(CCOCC4)C3)cc1)CC2` [Example 145]: 0.01 to 0.05 µM. In the case of `Cc1cnc(N2CC3(CCOCC3)C2)c(C(=O)Nc2ccc(C(=O)N3CCc4cc(NC(=O)c5ccccc5F)sc4-c4ccccc43)cc2)c1` [Example 285], the EC50 was less than 0.01 µM. The same measure for `Cc1cnc(N2CC3(CCOCC3)C2)c(C(=O)Nc2ccc(C(=O)N3CCc4cc(C(=O)Nc5ncns5)sc4-c4ccc(F)cc43)cc2)c1` [Example 128]: 0.01 to 0.05 µM. As for `Cc1cnc(N2CC3(CCOCC3)C2)c(C(=O)Nc2ccc(C(=O)N3CCc4c(sc(-c5nc6ccccc6[nH]5)c4C)-c4ccccc43)cc2)c1` [Example 273], the EC50 was in the range of 0.01 to 0.05 µM. Then `O=C(Nc1ccc(C(=O)N2CCc3cc(-c4nc5ccccc5[nH]4)sc3-c3ccc(F)cc32)cc1)c1cc2ccccc2nc1N1CC2(CCOCC2)C1` [Example 10], with 0.01 to 0.05 µM; and `Cc1cnc(N2CC3(CCOCC3)C2)c(C(=O)Nc2ccc(C(=O)N3CCc4cc(-c5cn(C)nc5N)sc4-c4ccc(F)cc43)cc2)c1` [Example 172], with less than 0.01 µM; and `O=C(Nc1ccc(C(=O)N2CCc3cc(-c4nc5cccc(F)c5[nH]4)sc3-c3ccc(F)cc32)cc1)c1cccnc1N1CC2(CCOCC2)C1` [Example 40], with 0.01 to 0.05 µM.

As to `Cc1cnc(N2CC3(CCOCC3)C2)c(C(=O)Nc2ccc(C(=O)N3CCc4c(sc(C(=O)Nc5c(F)cccc5F)c4C)-c4ccccc43)cc2)c1` [Example 274], the EC50 is less than 0.01 µM. Then `O=C(Nc1ccc(C(=O)N2CCc3cc(-c4ccn[nH]4)sc3-c3ccc(F)cc32)cc1)c1cc(F)cnc1N1CC2(CCOCC2)C1` [Example 45], with 0.01 to 0.05 µM; and `Cc1cnc(N2CC3(CCOCC3)C2)c(C(=O)Nc2ccc(C(=O)N3CCc4c(sc(C(=O)Nc5c(F)cccc5F)c4Cl)-c4ccccc43)cc2)c1` [Example 267], with less than 0.01 µM; and `O=C(Nc1c(F)cccc1F)c1cc2c(s1)-c1ccc(F)cc1N(C(=O)c1ccc(NC(=O)c3cccnc3C3CCOCC3)cc1)CC2` [Example 61], with 0.01 to 0.05 µM.

`O=C(Nc1c(F)cccc1F)c1cc2c(s1)-c1ccc(F)cc1N(C(=O)c1ccc(NC(=O)c3cccnc3N3CCOc4ccccc4C3)cc1)CC2` [Example 53]: the EC50 was more than 0.05 µM. As to `O=C(Nc1ccccc1)c1cc2c(o1)-c1ccccc1N(C(=O)c1ccc(NC(=O)c3cc4c(nc3N3CC5(CCOCC5)C3)CCC4)cc1)CC2` [Example 246], the EC50 is less than 0.01 µM. Then `Cc1cccc(F)c1NC(=O)c1cc2c(o1)-c1ccccc1N(C(=O)c1ccc(NC(=O)c3cc4c(nc3N3CC5(CCOCC5)C3)CCC4)cc1)CC2` [Example 250], with less than 0.01 µM. Then `O=C(Nc1c(F)cccc1Cl)c1cc2c(o1)-c1ccc(F)cc1N(C(=O)c1ccc(NC(=O)c3cc4c(nc3N3CC5(CCOCC5)C3)CCC4)cc1)CC2` [Example 240], with less than 0.01 µM; and `Cc1cnc(N2CC3(CCOCC3)C2)c(C(=O)Nc2ccc(C(=O)N3CCc4cc(-c5c[nH]c6c(Cl)cccc56)sc4-c4ccc(F)cc43)cc2)c1` [Example 175], with more than 0.05 µM; and `Cc1cnc(N2CC3(CCOCC3)C2)c(C(=O)Nc2ccc(C(=O)N3CCc4cc(NS(=O)(=O)c5c(C)cccc5F)sc4-c4ccccc43)cc2)c1` [Example 289], with more than 0.05 µM. `O=C(Nc1c(F)cccc1F)c1cc2c(s1)-c1c(ccc(F)c1F)N(C(=O)c1ccc(NC(=O)c3cccnc3N3CC4(CCOCC4)C3)cc1)CC2` [Example 69]: the EC50 was in the range of 0.01 to 0.05 µM. For the compound `O=C(Nc1c(F)cc(F)cc1Cl)c1cc2c(s1)-c1ccc(F)cc1N(C(=O)c1ccc(NC(=O)c3cc4ccccc4nc3N3C4CCC3COC4)cc1)CC2` [Example 32], the EC50 was more than 0.05 µM. For `Cc1cnc(N2CC3(CCOCC3)C2)c(C(=O)Nc2ccc(C(=O)N3CCc4cc(C(=O)Nc5c(F)cncc5F)sc4-c4ccc(F)cc43)cc2)c1` [Example 117], the EC50 is less than 0.01 µM. Then `Cc1ccc(NC(=O)c2sc3c(c2F)CCN(C(=O)c2ccc(NC(=O)c4cc(C)cnc4N4CC5(CCOCC5)C4)cc2)c2ccccc2-3)nc1` [Example 228], with 0.01 to 0.05 µM; and `Cc1cccc(F)c1NC(=O)c1sc2c(c1F)CCN(C(=O)c1ccc(NC(=O)c3cccnc3N3CC4(CCOCC4)C3)cc1)c1ccccc1-2` [Example 91], with less than 0.01 µM; and `Cc1cnc(N2CC3(CCOCC3)C2)c(C(=O)Nc2ccc(C(=O)N3CCc4cc(C(=O)Nc5c(Cl)cncc5Cl)sc4-c4ccc(F)cc43)cc2)c1` [Example 131], with less than 0.01 µM. Then `Cc1cnc(N2CC3(CCOCC3)C2)c(C(=O)Nc2ccc(C(=O)N3CCc4cc(C(=O)Nc5c(C)cccc5C)sc4-c4ccc(F)cc43)cc2)c1` [Example 6], with less than 0.01 µM; and `O=C(Nc1c(F)cccc1F)c1cc2c(s1)-c1ccc(F)cc1N(C(=O)c1ccc(NC(=O)c3cccnc3N3CCCOCC3)cc1)CC2` [Example 51], with more than 0.05 µM; and `O=C(Nc1c(F)cccc1F)c1cc2c(s1)-c1ccc(F)cc1N(C(=O)c1ccc(NC(=O)c3cccnc3N3CCCC(F)(F)CC3)cc1)CC2` [Example 52], with more than 0.05 µM.
